ChEMBL document CHEMBL3885861, “Open TG-GATES”

Species: Rattus norvegicus
Assay: Open TG-GATES - Regimen: Single
Assay type: toxicity, organism-based, Sprague-Dawley
Set-up: regimen Single, gender Male, age 6 weeks
Conditions: in vivo, po, 300 mg/kg, route gavage, dose level Low; for APTT / Bas / Eos / Fbg / Hb / Ht / Lym / MCH / MCHC / MCV / Mono / Neu / PT / Plat / RBC / Ret / WBC: tissue Blood; for KIDNEY_L / KIDNEY_R / KIDNEY_TOTAL: tissue Kidney; for LIVER: tissue Liver; for A/G / ALP / ALT / AST / BUN / CRE / Ca / Cl / DBIL / GLC / IP / K / LDH / Na / PL / RALB / TBIL / TC / TG / TP / gamma-GTP: tissue Plasma

Compound `Clc1c(Cl)c(Cl)c(Cl)c(Cl)c1Cl` [PERCHLOROBENZENE] has a TERMINAL_BW (3 h) of 219 g, an APTT (3 h) of 18.9 s and a Bas (3 h) of 0%. For the same compound, the Eos (3 h) was 1%, the Fbg (3 h) was 225 mg/dL and the Hb (3 h) was 13.3 g/dL. The Ht (3 h) was 37.8%, the Lym (3 h) was 72.2% and the MCH (3 h) was 21.8 pg. The MCHC (3 h) was 35.2%, the MCV (3 h) was 61.7 fL and the Mono (3 h) was 2.8%. For the same compound, the Neu (3 h) was 23.2%, the PT (3 h) was 11.9 s and the Plat (3 h) was 121.8 x10_4/uL. The RBC (3 h) was 613.6 x10_4/ul, the Ret (3 h) was 7.1% and the WBC (3 h) was 86.9 x10_2/uL. For the same compound, the KIDNEY_L (3 h) was 1 g, the KIDNEY_R (3 h) was 1 g and the KIDNEY_TOTAL (3 h) was 2 g. It also gave an LIVER (3 h) of 9.9 g, an A/G (3 h) of 1.7 and an ALP (3 h) of 1023.6 IU/L. For the same compound, the ALT (3 h) was 42.4 IU/L, the AST (3 h) was 87.2 IU/L and the BUN (3 h) was 10.2 mg/dL. For the same compound, the CRE (3 h) was 0.4 mg/dL, the Ca (3 h) was 10.7 mg/dL and the Cl (3 h) was 103 meq/L. It also gave a DBIL (3 h) of 0.062 mg/dL, a GLC (3 h) of 195.8 mg/dL and an IP (3 h) of 9.2 mg/dL. For the same compound, the K (3 h) was 3.9 meq/L, the LDH (3 h) was 211 IU/L and the Na (3 h) was 140.2 meq/L. For the same compound, the PL (3 h) was 145.8 mg/dL, the RALB (3 h) was 3.4 g/dL and the TBIL (3 h) was 0.1 mg/dL. It also gave a TC (3 h) of 72.6 mg/dL, a TG (3 h) of 109 mg/dL and a TP (3 h) of 5.4 g/dL. The gamma-GTP (3 h) was 1 IU/L, the TERMINAL_BW (6 h) was 218.5 g and the APTT (6 h) was 17.9 s. It also gave a Bas (6 h) of 0.2%, an Eos (6 h) of 1% and a Fbg (6 h) of 233.6 mg/dL. For the same compound, the Hb (6 h) was 13.6 g/dL, the Ht (6 h) was 38.5% and the Lym (6 h) was 77.2%. The MCH (6 h) was 21.9 pg, the MCHC (6 h) was 35.3% and the MCV (6 h) was 62 fL. It also gave a Mono (6 h) of 3.6%, a Neu (6 h) of 17.2% and a PT (6 h) of 11.9 s. For the same compound, the Plat (6 h) was 123.5 x10_4/uL, the RBC (6 h) was 623.6 x10_4/ul and the Ret (6 h) was 7%. It also gave a WBC (6 h) of 100 x10_2/uL, a KIDNEY_L (6 h) of 1 g and a KIDNEY_R (6 h) of 1 g. It also gave a KIDNEY_TOTAL (6 h) of 1.9 g, an LIVER (6 h) of 8.9 g and an A/G (6 h) of 1.6. It also gave an ALP (6 h) of 1089 IU/L, an ALT (6 h) of 31.4 IU/L and an AST (6 h) of 73.2 IU/L. It also gave a BUN (6 h) of 8.4 mg/dL, a CRE (6 h) of 0.4 mg/dL and a Ca (6 h) of 10.5 mg/dL. For the same compound, the Cl (6 h) was 102.8 meq/L, the DBIL (6 h) was 0.072 mg/dL and the GLC (6 h) was 190.6 mg/dL. The IP (6 h) was 9.4 mg/dL, the K (6 h) was 4.1 meq/L and the LDH (6 h) was 224.4 IU/L. It also gave a Na (6 h) of 140.8 meq/L, a PL (6 h) of 130.6 mg/dL and an RALB (6 h) of 3.4 g/dL. The TBIL (6 h) was 0.1 mg/dL, the TC (6 h) was 70.2 mg/dL and the TG (6 h) was 56 mg/dL. It also gave a TP (6 h) of 5.5 g/dL, a gamma-GTP (6 h) of 1 IU/L and a TERMINAL_BW (9 h) of 213.9 g. The APTT (9 h) was 18.1 s, the Bas (9 h) was 0% and the Eos (9 h) was 0.8%. For the same compound, the Fbg (9 h) was 228 mg/dL, the Hb (9 h) was 13.9 g/dL and the Ht (9 h) was 39.4%. It also gave a Lym (9 h) of 78.6%, an MCH (9 h) of 21.6 pg and an MCHC (9 h) of 35.2%. It also gave an MCV (9 h) of 61.5 fL, a Mono (9 h) of 3% and a Neu (9 h) of 16%. It also gave a PT (9 h) of 12.5 s, a Plat (9 h) of 125.7 x10_4/uL and an RBC (9 h) of 641.2 x10_4/ul. The Ret (9 h) was 6.4%, the WBC (9 h) was 85.4 x10_2/uL and the KIDNEY_L (9 h) was 1 g. The KIDNEY_R (9 h) was 0.9 g, the KIDNEY_TOTAL (9 h) was 1.9 g and the LIVER (9 h) was 8.7 g. The A/G (9 h) was 1.6, the ALP (9 h) was 857 IU/L and the ALT (9 h) was 30.6 IU/L. It also gave an AST (9 h) of 75.4 IU/L, a BUN (9 h) of 9.8 mg/dL and a CRE (9 h) of 0.4 mg/dL. For the same compound, the Ca (9 h) was 10.5 mg/dL, the Cl (9 h) was 104.2 meq/L and the DBIL (9 h) was 0.066 mg/dL. The GLC (9 h) was 202.8 mg/dL, the IP (9 h) was 10.2 mg/dL and the K (9 h) was 3.8 meq/L. The LDH (9 h) was 222 IU/L, the Na (9 h) was 142.6 meq/L and the PL (9 h) was 119.8 mg/dL. For the same compound, the RALB (9 h) was 3.4 g/dL, the TBIL (9 h) was 0.1 mg/dL and the TC (9 h) was 63.6 mg/dL. The TG (9 h) was 44.8 mg/dL, the TP (9 h) was 5.5 g/dL and the gamma-GTP (9 h) was 1.2 IU/L. The TERMINAL_BW (24 h) was 230 g, the APTT (24 h) was 17.8 s and the Bas (24 h) was 0.8%. It also gave an Eos (24 h) of 1%, a Fbg (24 h) of 225 mg/dL and a Hb (24 h) of 13.6 g/dL. For the same compound, the Ht (24 h) was 38.8%, the Lym (24 h) was 78% and the MCH (24 h) was 21.9 pg. The MCHC (24 h) was 35.1%, the MCV (24 h) was 62.4 fL and the Mono (24 h) was 3%. For the same compound, the Neu (24 h) was 17.2%, the PT (24 h) was 11.8 s and the Plat (24 h) was 114.2 x10_4/uL. The RBC (24 h) was 621 x10_4/ul, the Ret (24 h) was 6.4% and the WBC (24 h) was 81.3 x10_2/uL. For the same compound, the KIDNEY_L (24 h) was 1 g, the KIDNEY_R (24 h) was 1 g and the KIDNEY_TOTAL (24 h) was 2.1 g. For the same compound, the LIVER (24 h) was 11 g, the A/G (24 h) was 1.6 and the ALP (24 h) was 883.2 IU/L. For the same compound, the ALT (24 h) was 32 IU/L, the AST (24 h) was 61.8 IU/L and the BUN (24 h) was 13.2 mg/dL. The CRE (24 h) was 0.4 mg/dL, the Ca (24 h) was 10.9 mg/dL and the Cl (24 h) was 103.2 meq/L. It also gave a DBIL (24 h) of 0.058 mg/dL, a GLC (24 h) of 202.4 mg/dL and an IP (24 h) of 7.1 mg/dL. It also gave a K (24 h) of 3.9 meq/L, an LDH (24 h) of 196 IU/L and a Na (24 h) of 141.6 meq/L. The PL (24 h) was 143.8 mg/dL, the RALB (24 h) was 3.3 g/dL and the TBIL (24 h) was 0.1 mg/dL. It also gave a TC (24 h) of 77.6 mg/dL, a TG (24 h) of 118.8 mg/dL and a TP (24 h) of 5.5 g/dL. The gamma-GTP (24 h) was 1.2 IU/L.
